Source: patent US9149478B2, “Diabetes therapy” (Boehringer Ingelheim International GmbH, priority 2010, dated 2015)

Columns and labels:
[1] = system: non-obese-diabetic (NOD) mice; experiment: Onset of diabetes and stereological pancreas assessment in NOD mice over 60 days; type: in vivo, mouse; conditions: female NOD mice
From the text: Though reduced pancreatic T-cell migration and altered cytokine production is considered important players for the onset of insulinitis the exact mechanism and effects on the pancreatic cell pool is still incompletely understood.
Bi-weekly plasma samples are obtained to determine onset of diabetes (BG>11 mmol/l).

[2] = Pharmacokinetic profile of linagliptin (general statement); conditions: in vivo
[3] = Safety and tolerability in people with type 2 diabetes
[4] = Pharmacokinetics of BI 1356 after multiple oral doses once daily for 12 days in patients with type 2 diabetes; conditions: for feτ,ss: steady state (Day 12); for feτ,ss / fe0-24: gMean (gCV); for fe0-24: fraction excreted in urine
[5] = in vivo; cited from earlier work

Compound | incidence of diabetes (BG>11 mmol/l) at the end of the study period ([1]; 0.083 g linagliptin/kg chow (3-10 mg/kg p.o.), 60 days) | beta cell mass (insulin immunoreactivity) ([1]; linagliptin in chow, 60 days, stereology) | active plasma GLP-1 at termination ([1]; linagliptin in chow, versus control) | half-life [2] | safety and tolerability [3] | feτ,ss ([4]; 1 mg oral once daily) | feτ,ss ([4]; 2.5 mg oral once daily) | fe0-24 ([4]; 2.5 mg oral once daily) | feτ,ss ([4]; 5 mg oral once daily) | fe0-24 ([4]; 5 mg oral once daily) | feτ,ss ([4]; 10 mg oral once daily) | fe0-24 ([4]; 10 mg oral once daily) | mean accumulation ratio RA,AUC ([4]; doses above 1 mg, oral once daily) | excreted via the kidney ([4]; therapeutic oral dose levels) | route of excretion ([4]; therapeutic oral dose levels) | duration of action [5]
CC#CCn1c(N2CCC[C@@H](N)C2)nc2c1c(=O)n(Cc1nc(C)c3ccccc3n1)c(=O)n2C [BI 1356, 1-[(4-methyl-quinazolin-2-yl)methyl]-3-methyl-7-(2-butyn-1-yl)-8-(3-(R)-amino-piperidin-1-yl)-xanthine] | 9 out of 30 | 0.48 ± 0.09 mg | higher | ≤ 3 days | placebo-like safety and tolerability | 3.34 (38.3) % | 3.06 (45.1) % | 0.139 (51.2) % | 6.27 (42.2) % | 0.453 (125) % | 3.22 (34.2) % | 0.919 (115) % | ≤ 1.4 | < 7 % of the administered oral dose | primarily excreted unchanged via the bile | 
N^εB29-(N^α-(ω-carboxypentadecanoyl)-L-γ-glutamyl) des(B30) human insulin [Insulin degludec] |  |  |  |  |  |  |  |  |  |  |  |  |  |  |  | more than 24 hours
